{
  "source": "paper PMC4793208",
  "about": "(RNA, 2016)",
  "key": {"[1]": {"biological_target": "T1, S. pombe Dcp1/2 (Schizosaccharomyces pombe, UniProt O13828)", "T1 sequence (O13828 1-243 limits assumed)": "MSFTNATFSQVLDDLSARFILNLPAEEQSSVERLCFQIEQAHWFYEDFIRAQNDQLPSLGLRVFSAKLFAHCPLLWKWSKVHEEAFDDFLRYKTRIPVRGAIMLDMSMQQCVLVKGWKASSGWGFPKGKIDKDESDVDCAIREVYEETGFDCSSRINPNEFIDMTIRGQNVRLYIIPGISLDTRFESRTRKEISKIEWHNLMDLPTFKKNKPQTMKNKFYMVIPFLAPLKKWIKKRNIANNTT", "T1 sequence (Q9P805 1-127 partner)": "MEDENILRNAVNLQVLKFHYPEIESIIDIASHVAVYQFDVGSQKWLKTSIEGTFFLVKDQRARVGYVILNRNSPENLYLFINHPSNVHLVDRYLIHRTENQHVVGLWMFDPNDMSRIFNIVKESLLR", "format": "biochemical"}, "[2]": {"biological_target": "T2, SpDcp1/2 (Schizosaccharomyces pombe, UniProt O13828)", "T2 sequence (O13828 1-243)": "T1 sequence (O13828 1-243 limits assumed)", "T2 sequence (Q9P805 1-127 partner)": "T1 sequence (Q9P805 1-127 partner)", "experiment": "Single-turnover kinetic inhibition assay, SpDcp1/2, 29-nt native-capped RNA", "format": "biochemical", "conditions": "read-out: KI (affinity for the free enzyme), Dcp1/2 complex, subsaturating enzyme"}},
  "data": [
    {"smiles": "CO[C@H]1[C@@H](O)[C@H]([n+]2cn(C)c3c(=O)[nH]c(N)nc32)O[C@@H]1COP(=O)([O-])OP(=O)(O)OP(=O)(O)OC[C@H]1O[C@@H](n2cnc3c(=O)[nH]c(N)nc32)[C@H](O)[C@@H]1O", "note": "[Compound 16, m2^7,3′-OGpppG]", "values": [
      {"measurement": "inhibitory properties towards Dcp1/2 decapping (in words)", "setting": "[1]", "value": "poor Dcp1/2 inhibitors"}
    ]},
    {"smiles": "C[n+]1cn([C@@H]2O[C@H](COP(=O)(O)OP(=O)([O-])OP(=O)(O)OP(=O)(O)OC[C@H]3O[C@@H](n4cnc5c(=O)[nH]c(N)nc54)[C@H](O)[C@@H]3O)[C@@H](O)[C@H]2O)c2nc(N)nc(O)c21", "note": "[Compound 17, m^7GppppG]", "values": [
      {"measurement": "inhibitory properties towards Dcp1/2 decapping (in words)", "setting": "[1]", "value": "minimal"}
    ]},
    {"smiles": "Nc1ncnc2c1ncn2[C@@H]1O[C@H](COP(=O)(O)OP(=O)(O)OP(=O)(O)O)[C@@H](O)[C@H]1O", "note": "[Compound 18, ATP]", "values": [
      {"measurement": "inhibitory properties towards Dcp1/2 decapping (in words)", "setting": "[1]", "value": "poor Dcp1/2 inhibitors"}
    ]},
    {"smiles": "Nc1nc2c(ncn2[C@@H]2O[C@H](COP(=O)(O)OP(=O)(O)OP(=O)(O)O)[C@@H](O)[C@H]2O)c(=O)[nH]1", "note": "[Compound 19, GTP]", "values": [
      {"measurement": "inhibitory properties towards Dcp1/2 decapping (in words)", "setting": "[1]", "value": "poor Dcp1/2 inhibitors"}
    ]},
    {"smiles": "Cn1c[n+]([C@@H]2O[C@H](COP(=O)(O)OP(=O)([O-])OP(=O)(O)OC[C@H]3O[C@@H](n4cnc5c(=O)[nH]c(N)nc54)[C@H](O)[C@@H]3O)[C@@H](O)[C@H]2O)c2nc(N)[nH]c(=O)c21", "note": "[m^7GpppG]", "values": [
      {"measurement": "Ki", "setting": "[2]", "value": "1.4 ± 0.3", "unit": "mM"}
    ]}
  ]
}
